Laboratory results from patent US12281205B2, “Modified antibacterial compositions and methods” (priority 2016, dated 2025).
Values after ≈ are worked out from the molar mass of the structure shown. Values joined by “and” are separate entries in the source; they are usually repeats but may differ in a detail not shown here. Equal entries are not always repeated. Where two headings read alike, the source gives them in different places. Where no end group is shown, it is not given here.

How the values were obtained:
[1] = tested on: MDR A. baumannii (FADDI-AB156); test: Antibiogram of MDR A. baumannii; type: cell-based, Acinetobacter baumannii; settings: for Susceptibility: CLSI resistant breakpoints
[2] = tested on: MDR P. aeruginosa (FADDI-PA067); test: Antibiogram of MDR P. aeruginosa; type: cell-based, Pseudomonas aeruginosa; settings: for Susceptibility: CLSI resistant breakpoints
[3] = tested on: CMDR A. baumannii (FADDI-AB156); test: Mouse peritonitis model; type: in vivo, C57BL/6 mice; settings: 24 h infection
E. coli = test: Minimum inhibitory concentration (MIC), broth microdilution; type: cell-based; settings: Escherichia coli
Method: The MICs of the PAMAM dendrimers were determined using a broth microdilution method. After the preparation of a dilution series of each compound and the addition of bacterial cells (Note: steps identical to that taken for the measurement of MBC), the optical density readings of each well at 630 nm were measured as a function of time using a microplate reader (Multiskan Ascent, Pathtech Pty. Ltd.). Positive controls containing cells alone were incorporated. Optical density was plotted against polymer concentration and linear regression analysis was used to determine the lowest concentration (MIC) at which the optical density reading becomes zero. A minimum of two independent experiments (biological replicates) of the assay were conducted and two technical replicates were used in each experiment for each bacterium, polymer, and concentration. Data is expressed as mean±standard deviation (SD) of the biological replicates and analysed using student's t-test.

[4] = tested on: sheep red blood cells (RBCs); test: Hemolysis assay
Method: Fresh sheep red blood cells (RBCs) were diluted 1 in 20 in PBS (pH 7.4), pelleted by centrifugation, and washed three times in PBS (1000 g, 10 min). The RBCs were counted using a cell counter (Coulter Particle Counter Z series, Beckman Coulter) and diluted to a final concentration of 2×10^7 cells/mL. 100 μL aliquots of the RBC solution were seeded into a V-bottomed 96-well plate containing 100 μL of test compound solution of varying concentrations (4-256 μg/mL) and incubated in a humidified atmosphere containing 5% CO2 at 37° C. for 2 h. Following incubation, the 96-well plate was centrifuged (1000 g, 10 min) and aliquots (100 μL) of supernatant were transferred to a flat-bottomed 96-well plate. Hemoglobin release upon lysis of the RBCs was monitored at 405 nm using a microplate reader (PerkinElmer 1420 Multilabel Counter VICTOR^3). Positive and negative controls for hemolysis were taken as RBC lysed with 0.5% Triton X-100 (1:1 v/v) and RBC suspension in PBS, respectively. The percentage of hemolysis was calculated using the following formula:
The percentage hemolysis was plotted against peptide polymer concentration and linear regression analysis was used to determine the hemolytic concentration needed to lyse 50% (HC50) of RBCs. Two independent runs of the assay were conducted and two replicates were used in each run for each compound and concentration.
Fresh sheep red blood cells (RBCs) were diluted 1 in 20 in PBS (pH 7.4), pelleted by centrifugation, and washed three times in PBS (1000 g, 10 min). The RBCs were counted using a cell counter (Coulter Particle Counter Z series, Beckman Coulter) and diluted to a final concentration of 2×10^7 cells/mL. 100 μL aliquots of the RBC solution were seeded into a V-bottomed 96-well plate containing 100 μL of polypeptide solution of varying concentrations (4-256 μg/mL) and incubated in a humidified atmosphere containing 5% CO2 at 37° C. for 2 h. Following incubation, the 96-well plate was centrifuged (1000 g, 10 min) and aliquots (100 μL) of supernatant were transferred to a flat-bottomed 96-well plate. Hemoglobin release upon lysis of the RBCs was monitored at 405 nm using a microplate reader (PerkinElmer 1420 Multilabel Counter VICTOR3). Positive and negative controls for hemolysis were taken as RBC lysed with 0.5% Triton X-100 (1:1 v/v) and RBC suspension in PBS, respectively. The percentage of hemolysis was calculated using the following formula:
The percentage hemolysis was plotted against polypeptide concentration and linear regression analysis was used to determine the hemolytic concentration needed to lyse 50% (HC50) of RBCs. Two independent runs of the assay were conducted and two replicates were used in each run for each polypeptide and concentration.

[5] = tested on: A. baumannii (ATCC 19606); test: Minimum bactericidal concentration (MBC); type: cell-based, Acinetobacter baumannii; design: unit not given here; settings: MHB
Method: (§1) A dilution series of each compound was made by diluting test compound stock in media to a desired range of concentrations and a final volume of 100 μL in each well of a 96-well plate. Bacterial cells (which gave an optical density reading of ˜0.7 at 650 nm for E. coli, K. pneumoniae, P. aeruginosa, and S. aureus, ˜0.5 at 650 nm for A. baumannii and ˜1.8 at 650 nm for S. mutans) were diluted to 2.5×10^6 cells/mL in media and 100 μL of the bacteria solution was added to each well. The 96-well plate was then incubated at 37° C. for 90 min. For each well, microbial solution was diluted with saline (0.9% NaCl solution) using an appropriate dilution factor and placed on an agar plate (identical to that used for bacteria culture). For E. coli, K. pneumoniae, A. baumannii, and S. aureus, the agar plates were incubated overnight at room temperature, and then at 37° C. with aeration for 2 h. For P. aeruginosa and S. mutans, the agar plates were incubated at 37° C., with the former being incubated overnight with aeration and the latter in an anaerobic chamber for 48 h. The number of colony-forming units (CFU) was counted and expressed as CFU/mL. Positive controls consisting of cells without any treatment were used. […] Data is expressed as mean±standard deviation (SD) of the biological replicates and analysed using student's t-test. […]

[6] = tested on: K. pneumoniae (ATCC 13883); test: Minimum bactericidal concentration (MBC); type: cell-based, Klebsiella pneumoniae; design: unit not given here; settings: MHB
Method: as §1

E. coli (ATCC 25922) = test: Minimum bactericidal concentration (MBC); type: cell-based, Escherichia coli; design: unit not given here; settings: MHB
Text: (§2) The number of colony-forming units (CFU) was counted and expressed as CFU/mL. Positive controls consisting of cells without any treatment were used.
as §2

[7] = tested on: P. aeruginosa (ATCC 47085); test: Minimum bactericidal concentration (MBC); type: cell-based, Pseudomonas aeruginosa; design: unit not given here; settings: MHB
Method: as §1

[8] = concentration giving 50% hemolysis, 2 h

Compound: NCC[C@H](O)C(=O)N[C@@H]1C[C@H](N)[C@@H](O[C@H]2O[C@H](CN)[C@@H](O)[C@H](O)[C@H]2O)[C@H](O)[C@H]1O[C@H]1O[C@H](CO)[C@@H](O)[C@H](N)[C@H]1O [Amikacin]
- Susceptibility [1]: Resistant

Compound: CC1(C)S[C@@H]2[C@H](NC(=O)[C@H](N)c3ccccc3)C(=O)N2[C@H]1C(=O)O [Ampicillin]
- MIC ([1]; Acinetobacter baumannii): ≥ 91.6 µM
- Susceptibility [1]: Resistant

Compound: C[C@H]1[C@H](NC(=O)/C(=N\OC(C)(C)C(=O)O)c2csc(N)n2)C(=O)N1S(=O)(=O)O [Aztreonam]
- Susceptibility [2]: Resistant

Compound: Cc1nnc(SCC2=C(C(=O)O)N3C(=O)[C@@H](NC(=O)Cn4cnnn4)[C@H]3SC2)s1 [Cefazolin]
- Susceptibility [1]: Resistant

Compound: CO/N=C(\C(=O)N[C@@H]1C(=O)N2C(C(=O)[O-])=C(C[N+]3(C)CCCC3)CS[C@H]12)c1csc(N)n1 [Cefepime]
- Susceptibility [1]: Resistant

Compound: CO[C@@]1(NC(=O)Cc2cccs2)C(=O)N2C(C(=O)O)=C(COC(N)=O)CS[C@@H]21 [Cefoxitin]
- Susceptibility [1]: Resistant

Compound: CC(C)(O/N=C(\C(=O)N[C@@H]1C(=O)N2C(C(=O)[O-])=C(C[n+]3ccccc3)CS[C@H]12)c1csc(N)n1)C(=O)O [Ceftazidime]
- Susceptibility [2]: Resistant
- Susceptibility [1]: Resistant

Compound: CO/N=C(\C(=O)N[C@@H]1C(=O)N2C(C(=O)O)=C(CSc3nc(=O)c(=O)[nH]n3C)CS[C@H]12)c1csc(N)n1 [Ceftriaxone]
- Susceptibility [1]: Resistant

Compound: C[C@@H](O)[C@H]1C(=O)N2C(C(=O)O)=C(SCCN=CN)C[C@H]12 [Imipenem]
- MIC ([1]; Acinetobacter baumannii): ≥ 214 µM
- survival [3]: 50%

Compound: C[C@@H](O)[C@H]1C(=O)N2C(C(=O)O)=C(S[C@@H]3CN[C@H](C(=O)N(C)C)C3)[C@H](C)[C@H]12 [Meropenem]
- Susceptibility [1]: Resistant

Compound: CCn1cc(C(=O)O)c(=O)c2ccc(C)nc21 [Nalidixic Acid]
- Susceptibility [1]: Resistant

Compound: CCn1cc(C(=O)O)c(=O)c2cc(F)c(N3CCNCC3)cc21 [Norfloxacin]
- Susceptibility [1]: Resistant

Compound: CCN1CCN(C(=O)N[C@@H](C(=O)N[C@@H]2C(=O)N3[C@@H]2SC(C)(C)[C@@H]3C(=O)O)c2ccccc2)C(=O)C1=O [Piperacillin]
- Susceptibility [2]: Resistant

Compound: CC1(C)S[C@@H]2[C@H](NC(=O)[C@H](C(=O)O)c3ccsc3)C(=O)N2[C@H]1C(=O)O [Ticarcillin]
- Susceptibility [2]: Resistant

Compound: NC[C@H]1O[C@H](O[C@H]2[C@H](O)[C@@H](O[C@H]3O[C@H](CO)[C@@H](O)[C@H](N)[C@H]3O)[C@H](N)C[C@@H]2N)[C@H](N)C[C@@H]1O [Tobramycin]
- Susceptibility [2]: Resistant
- MIC ([1]; Acinetobacter baumannii): ≥ 34.2 µM
- Susceptibility [1]: Resistant

Compound: COc1cc(Cc2cnc(N)nc2N)cc(OC)c1OC [Trimethoprim]
- Susceptibility [1]: Resistant

Compound: C[C@H]1c2cccc(O)c2C(=O)C2=C(O)[C@]3(O)C(=O)C(C(N)=O)=C(O)[C@@H](N(C)C)[C@@H]3[C@@H](O)[C@@H]21 [doxycycline]
- MIC (E. coli): 0.5 µg/mL (≈ 1.13 µM)

Compound: Amoxicillin/Clavulanic Acid
- MIC [1]: ≥87.6 µM
- Susceptibility [1]: Resistant

Compound: Colistin Sulfate
- Susceptibility, concentration in parentheses [2]: > 110.8 µM
- Susceptibility [2]: Resistant
- MIC [1]: 13.8 µM
- Susceptibility [1]: Resistant

Compound: GIGKFLHSAKKFGKAFVGEIMNS-NH2 [Magainin II]
- HC50 [4, 8]: 81.1 µM
- HC50 ([4]; extrapolated from FIG. 59): 33 μg/mL and 81.1 μM

Compound: Gentamicin
- Susceptibility [2]: Resistant
- MIC [1]: ≥33.5 µM
- Susceptibility [1]: Resistant

Compound: Ovispirin: antimicrobial peptide NH2- KNLRRIIRKIIHIIKKYG-COOH (H-KNLRRIIRKIIHIIKKYG-OH; also: SNAPP conjugate)
- MBC [5]: 2.21 ± 0.88
- MBC [6]: 11.49 ± 4.86
- HC50 [4, 8]: 61.8 µM
- HC50 ([4]; extrapolated from FIG. 59): 27 μg/mL and 61.8 μM
- MBC (E. coli (ATCC 25922)): 8.39 ± 0.44
- MBC [7]: 95.49 ± 9.73

Compound: Piperacillin/Tazobactam
- MIC [1]: ≥247.3 µM
- Susceptibility [1]: Resistant

Compound: Ticarcillin/Clavulanic Aid
- MIC [1]: ≥333.0 µM
- Susceptibility [1]: Resistant

Compound: Trimethoprim/Sulfamethoxazole
- MIC [1]: ≥1102.2 µM
- Susceptibility [1]: Resistant
